Source: ChEMBL document CHEMBL4311936, “Synthesis and structure-activity relationship studies of IgG-binding peptides focused on the C-terminal histidine residue” (Medchemcomm, 2019)
Bridge positions count the residues as written; N and C are the ends. Square brackets hold non-standard residues; d marks the D form. Peptide text beside a SMILES is read from it. * marks the point of attachment. ξ: configuration not given here. NH(4-OH-benzyl) = Oc1ccc(CN*)cc1; ξ2Pal = NC(Cc1ccccn1)C(=O)O; ξ3Pal = NC(Cc1cccnc1)C(=O)O; ξ4Pal = NC(Cc1ccncc1)C(=O)O; ξ2Thi = NC(Cc1cccs1)C(=O)O; ξCha = NC(CC1CCCCC1)C(=O)O; ξOrn = NCCCC(N)C(=O)O; ξDab = NCCC(N)C(=O)O

How the values were obtained:
[1] = Binding affinity to human IgG assessed as dissociation constant by SPR analysis
Homo sapiens [2] = organism: Homo sapiens; test: Binding affinity to human IgG assessed as association rate constant by SPR analysis
Homo sapiens [3] = organism: Homo sapiens; test: Binding affinity to human IgG assessed as dissociation rate constant by SPR analysis

Row | Structure (SMILES) | Kd [1] | Ka (Homo sapiens [2]) | Kdiss (Homo sapiens [3])
1 | CC(=O)N[C@@H](CC(=O)O)C(=O)N[C@H]1CSSC[C@@H](C(=O)N[C@H](C(=O)N[C@@H](Cc2ccccc2)C(=O)NC(CC2CCCCC2)C(N)=O)[C@@H](C)O)NC(=O)[C@H](Cc2c[nH]c3ccccc23)NC(=O)[C@H](C(C)C)NC(=O)[C@H](CC(C)C)NC(=O)[C@H](CCC(=O)O)NC(=O)CNC(=O)[C@H](CCCCN)NC(=O)[C@H](Cc2cnc[nH]2)NC(=O)[C@H](Cc2ccc(O)cc2)NC(=O)[C@H](C)NC1=O (some centres not stated) (Ac-DCAYHKGELVWCTF[ξCha]-NH2; disulfide 2-12) | 0.165 µM | 776000 M⁻¹ s⁻¹ | 0.128 s⁻¹
2 | CC(=O)N[C@@H](CC(=O)O)C(=O)N[C@H]1CSSC[C@@H](C(=O)N[C@H](C(=O)N[C@@H](Cc2ccccc2)C(=O)NC(Cc2ccccn2)C(=O)O)[C@@H](C)O)NC(=O)[C@H](Cc2c[nH]c3ccccc23)NC(=O)[C@H](C(C)C)NC(=O)[C@H](CC(C)C)NC(=O)[C@H](CCC(=O)O)NC(=O)CNC(=O)[C@H](CC(C)C)NC(=O)[C@H](Cc2cnc[nH]2)NC(=O)[C@H](Cc2ccc(O)cc2)NC(=O)[C@H](C)NC1=O (some centres not stated) (Ac-DCAYHLGELVWCTF[ξ2Pal]-OH; disulfide 2-12) | 0.00248 µM | 1.35e+06 M⁻¹ s⁻¹ | 0.0033 s⁻¹
3 | CC(=O)N[C@@H](CC(=O)O)C(=O)N[C@H]1CSSC[C@@H](C(=O)N[C@H](C(=O)N[C@@H](Cc2ccccc2)C(=O)NC(Cc2ccccn2)C(=O)O)[C@@H](C)O)NC(=O)[C@H](Cc2c[nH]c3ccccc23)NC(=O)[C@H](C(C)C)NC(=O)[C@H](CC(C)C)NC(=O)[C@H](CCC(=O)O)NC(=O)CNC(=O)[C@H](CCCCN)NC(=O)[C@H](Cc2cnc[nH]2)NC(=O)[C@H](Cc2ccc(O)cc2)NC(=O)[C@H](C)NC1=O (mixture of isomers) | 0.0976 µM | 690000 M⁻¹ s⁻¹ | 0.0674 s⁻¹
4 | CC(=O)N[C@@H](CC(=O)O)C(=O)N[C@H]1CSSC[C@@H](C(=O)N[C@H](C(=O)N[C@@H](Cc2ccccc2)C(=O)NC(Cc2ccncc2)C(N)=O)[C@@H](C)O)NC(=O)[C@H](Cc2c[nH]c3ccccc23)NC(=O)[C@H](C(C)C)NC(=O)[C@H](CC(C)C)NC(=O)[C@H](CCC(=O)O)NC(=O)CNC(=O)[C@H](CCCCN)NC(=O)[C@H](Cc2cnc[nH]2)NC(=O)[C@H](Cc2ccc(O)cc2)NC(=O)[C@H](C)NC1=O (some centres not stated) (Ac-DCAYHKGELVWCTF[ξ4Pal]-NH2; disulfide 2-12) | 0.533 µM | 730000 M⁻¹ s⁻¹ | 0.389 s⁻¹
5 | CC(=O)N[C@@H](CC(=O)O)C(=O)N[C@H]1CSSC[C@@H](C(=O)N[C@H](C(=O)N[C@@H](Cc2ccccc2)C(=O)NC(CCN)C(N)=O)[C@@H](C)O)NC(=O)[C@H](Cc2c[nH]c3ccccc23)NC(=O)[C@H](C(C)C)NC(=O)[C@H](CC(C)C)NC(=O)[C@H](CCC(=O)O)NC(=O)CNC(=O)[C@H](CCCCN)NC(=O)[C@H](Cc2cnc[nH]2)NC(=O)[C@H](Cc2ccc(O)cc2)NC(=O)[C@H](C)NC1=O (some centres not stated) (Ac-DCAYHKGELVWCTF[ξDab]-NH2; disulfide 2-12) | 1.02 µM | 731000 M⁻¹ s⁻¹ | 0.749 s⁻¹
6 | CC(=O)N[C@@H](CC(=O)O)C(=O)N[C@H]1CSSC[C@@H](C(=O)N[C@H](C(=O)N[C@@H](Cc2ccccc2)C(=O)NC(CCCN)C(N)=O)[C@@H](C)O)NC(=O)[C@H](Cc2c[nH]c3ccccc23)NC(=O)[C@H](C(C)C)NC(=O)[C@H](CC(C)C)NC(=O)[C@H](CCC(=O)O)NC(=O)CNC(=O)[C@H](CCCCN)NC(=O)[C@H](Cc2cnc[nH]2)NC(=O)[C@H](Cc2ccc(O)cc2)NC(=O)[C@H](C)NC1=O (some centres not stated) (Ac-DCAYHKGELVWCTF[ξOrn]-NH2; disulfide 2-12) | 0.71 µM |  | 
7 | CC(=O)N[C@@H](CC(=O)O)C(=O)N[C@H]1CSSC[C@@H](C(=O)N[C@H](C(=O)N[C@@H](Cc2ccccc2)C(=O)N[C@@H](Cc2ccccc2)C(N)=O)[C@@H](C)O)NC(=O)[C@H](Cc2c[nH]c3ccccc23)NC(=O)[C@H](C(C)C)NC(=O)[C@H](CC(C)C)NC(=O)[C@H](CCC(=O)O)NC(=O)CNC(=O)[C@H](CCCCN)NC(=O)[C@H](Cc2cnc[nH]2)NC(=O)[C@H](Cc2ccc(O)cc2)NC(=O)[C@H](C)NC1=O (Ac-DCAYHKGELVWCTFF-NH2; disulfide 2-12) | 0.506 µM | 713000 M⁻¹ s⁻¹ | 0.361 s⁻¹
8 | CC(=O)N[C@@H](CC(=O)O)C(=O)N[C@H]1CSSC[C@@H](C(=O)N[C@H](C(=O)N[C@@H](Cc2ccccc2)C(=O)NC(Cc2cccs2)C(N)=O)[C@@H](C)O)NC(=O)[C@H](Cc2c[nH]c3ccccc23)NC(=O)[C@H](C(C)C)NC(=O)[C@H](CC(C)C)NC(=O)[C@H](CCC(=O)O)NC(=O)CNC(=O)[C@H](CCCCN)NC(=O)[C@H](Cc2cnc[nH]2)NC(=O)[C@H](Cc2ccc(O)cc2)NC(=O)[C@H](C)NC1=O (some centres not stated) (Ac-DCAYHKGELVWCTF[ξ2Thi]-NH2; disulfide 2-12) | 0.22 µM | 771000 M⁻¹ s⁻¹ | 0.169 s⁻¹
9 | CC(=O)N[C@@H](CC(=O)O)C(=O)N[C@H]1CSSC[C@@H](C(=O)N[C@H](C(=O)N[C@@H](Cc2ccccc2)C(=O)N[C@@H](Cc2cnc[nH]2)C(=O)NCC(N)=O)[C@@H](C)O)NC(=O)[C@H](Cc2c[nH]c3ccccc23)NC(=O)[C@H](C(C)C)NC(=O)[C@H](CC(C)C)NC(=O)[C@H](CCC(=O)O)NC(=O)CNC(=O)[C@H](CCCCN)NC(=O)[C@H](Cc2cnc[nH]2)NC(=O)[C@H](Cc2ccc(O)cc2)NC(=O)[C@H](C)NC1=O (Ac-DCAYHKGELVWCTFHG-NH2; disulfide 2-12) | 0.338 µM | 615000 M⁻¹ s⁻¹ | 0.208 s⁻¹
10 | CC(=O)N[C@@H](CC(=O)O)C(=O)N[C@H]1CSSC[C@@H](C(=O)N[C@H](C(=O)N[C@@H](Cc2ccccc2)C(=O)N[C@@H](Cc2c[nH]c3ccccc23)C(N)=O)[C@@H](C)O)NC(=O)[C@H](Cc2c[nH]c3ccccc23)NC(=O)[C@H](C(C)C)NC(=O)[C@H](CC(C)C)NC(=O)[C@H](CCC(=O)O)NC(=O)CNC(=O)[C@H](CCCCN)NC(=O)[C@H](Cc2cnc[nH]2)NC(=O)[C@H](Cc2ccc(O)cc2)NC(=O)[C@H](C)NC1=O (Ac-DCAYHKGELVWCTFW-NH2; disulfide 2-12) | 1.22 µM |  | 
11 | CC(=O)N[C@@H](CC(=O)O)C(=O)N[C@H]1CSSC[C@@H](C(=O)N[C@H](C(=O)N[C@@H](Cc2ccccc2)C(=O)N[C@H](Cc2ccccn2)C(N)=O)[C@@H](C)O)NC(=O)[C@H](Cc2c[nH]c3ccccc23)NC(=O)[C@H](C(C)C)NC(=O)[C@H](CC(C)C)NC(=O)[C@H](CCC(=O)O)NC(=O)CNC(=O)[C@H](CC(C)C)NC(=O)[C@H](Cc2cnc[nH]2)NC(=O)[C@H](Cc2ccc(O)cc2)NC(=O)[C@H](C)NC1=O | 0.023 µM | 1.32e+06 M⁻¹ s⁻¹ | 0.0304 s⁻¹
12 | CC(=O)N[C@@H](CC(=O)O)C(=O)N[C@H]1CSSC[C@@H](C(=O)N[C@H](C(=O)N[C@@H](Cc2ccccc2)C(=O)NC(Cc2ccccn2)C(N)=O)[C@@H](C)O)NC(=O)[C@H](Cc2c[nH]c3ccccc23)NC(=O)[C@H](C(C)C)NC(=O)[C@H](CC(C)C)NC(=O)[C@H](CCC(=O)O)NC(=O)CNC(=O)[C@H](CC(C)C)NC(=O)[C@H](Cc2cnc[nH]2)NC(=O)[C@H](Cc2ccc(O)cc2)NC(=O)[C@H](C)NC1=O (mixture of isomers) | 0.00219 µM | 1.49e+06 M⁻¹ s⁻¹ | 0.00326 s⁻¹
13 | CC(=O)N[C@@H](CC(=O)O)C(=O)N[C@H]1CSSC[C@@H](C(=O)N[C@H](C(=O)N[C@@H](Cc2ccccc2)C(=O)N[C@@H](Cc2cnc[nH]2)C(=O)NCc2ccc(O)cc2)[C@@H](C)O)NC(=O)[C@H](Cc2c[nH]c3ccccc23)NC(=O)[C@H](C(C)C)NC(=O)[C@H](CC(C)C)NC(=O)[C@H](CCC(=O)O)NC(=O)CNC(=O)[C@H](CCCCN)NC(=O)[C@H](Cc2cnc[nH]2)NC(=O)[C@H](Cc2ccc(O)cc2)NC(=O)[C@H](C)NC1=O (Ac-DCAYHKGELVWCTFH-{NH(4-OH-benzyl)}; disulfide 2-12) | 0.203 µM | 603000 M⁻¹ s⁻¹ | 0.122 s⁻¹
14 | CC(=O)N[C@@H](CC(=O)O)C(=O)N[C@H]1CSSC[C@@H](C(=O)N[C@H](C(=O)N[C@@H](Cc2ccccc2)C(=O)N[C@H](Cc2ccccn2)C(N)=O)[C@@H](C)O)NC(=O)[C@H](Cc2c[nH]c3ccccc23)NC(=O)[C@H](C(C)C)NC(=O)[C@H](CC(C)C)NC(=O)[C@H](CCC(=O)O)NC(=O)CNC(=O)[C@H](CCCCN)NC(=O)[C@H](Cc2cnc[nH]2)NC(=O)[C@H](Cc2ccc(O)cc2)NC(=O)[C@H](C)NC1=O | 0.579 µM | 593000 M⁻¹ s⁻¹ | 0.344 s⁻¹
15 | CC(=O)N[C@@H](CC(=O)O)C(=O)N[C@H]1CSSC[C@@H](C(=O)N[C@H](C(=O)N[C@@H](Cc2ccccc2)C(=O)NC(Cc2cccnc2)C(N)=O)[C@@H](C)O)NC(=O)[C@H](Cc2c[nH]c3ccccc23)NC(=O)[C@H](C(C)C)NC(=O)[C@H](CC(C)C)NC(=O)[C@H](CCC(=O)O)NC(=O)CNC(=O)[C@H](CCCCN)NC(=O)[C@H](Cc2cnc[nH]2)NC(=O)[C@H](Cc2ccc(O)cc2)NC(=O)[C@H](C)NC1=O (some centres not stated) (Ac-DCAYHKGELVWCTF[ξ3Pal]-NH2; disulfide 2-12) | 0.55 µM | 772000 M⁻¹ s⁻¹ | 0.425 s⁻¹
16 | CC(=O)N[C@@H](CC(=O)O)C(=O)N[C@H]1CSSC[C@@H](C(=O)N[C@H](C(=O)N[C@@H](Cc2ccccc2)C(=O)N[C@@H](C)C(N)=O)[C@@H](C)O)NC(=O)[C@H](Cc2c[nH]c3ccccc23)NC(=O)[C@H](C(C)C)NC(=O)[C@H](CC(C)C)NC(=O)[C@H](CCC(=O)O)NC(=O)CNC(=O)[C@H](CCCCN)NC(=O)[C@H](Cc2cnc[nH]2)NC(=O)[C@H](Cc2ccc(O)cc2)NC(=O)[C@H](C)NC1=O (Ac-DCAYHKGELVWCTFA-NH2; disulfide 2-12) | 0.841 µM | 567000 M⁻¹ s⁻¹ | 0.477 s⁻¹
17 | CC(=O)N[C@@H](CC(=O)O)C(=O)N[C@H]1CSSC[C@@H](C(=O)N[C@H](C(=O)N[C@@H](Cc2ccccc2)C(=O)NC(Cc2ccccn2)C(N)=O)[C@@H](C)O)NC(=O)[C@H](Cc2c[nH]c3ccccc23)NC(=O)[C@H](C(C)C)NC(=O)[C@H](CC(C)C)NC(=O)[C@H](CCC(=O)O)NC(=O)CNC(=O)[C@H](CCCCN)NC(=O)[C@H](Cc2cnc[nH]2)NC(=O)[C@H](Cc2ccc(O)cc2)NC(=O)[C@H](C)NC1=O (mixture of isomers) | 0.0757 µM | 764000 M⁻¹ s⁻¹ | 0.0579 s⁻¹
